According to ChEMBL document CHEMBL3301361, “Experimental in vitro DMPK and physicochemical data on a set of publicly disclosed compounds”:

Experiment: physchem
Conditions: octan-1-ol/water, pH 7.4

Structure (SMILES) | logD
CN(C)C(=O)N[C@H]1CC[C@H](CCN2[C@@H]3CC[C@H]2C[C@@H](Oc2cccc(C(N)=O)c2)C3)CC1 | 0.12
Cc1ccc(CN2C(=O)CCSc3ccc(Cl)cc32)cc1 | 3.7
COc1ccc(C=C2SC(=O)NC2=O)cc1OC | 1.17
CC(C)(C)OC(=O)N1CCN(c2ncc(OCc3ccncc3C#N)cn2)CC1 | 2.81
CCN(CC)C(=O)c1ccc(C2=CC3(CCNCC3)Oc3cccc(O)c32)cc1 [ADL-5859] | 0.54
NC(=O)c1cccc(O[C@H]2C[C@H]3CC[C@@H](C2)N3Cc2ccccc2)n1 | 1.71
COc1cc(C(=O)N2CC[C@](CCN3CCC(C(N)=O)(c4ccccc4)CC3)(c3ccc(Cl)c(Cl)c3)C2)cc(OC)c1OC | 3.23
CNC1=Nc2ncccc2C(c2ccco2)=NC1c1cccs1 (stereo unspecified) | 1.85
NC(=O)c1ccc(O[C@H]2C[C@H]3CC[C@@H](C2)N3Cc2ccccc2)nc1 | 1.25
COC(=O)N1CCN(C(=O)Cc2ccc(Cl)c(Cl)c2)[C@H](CN2CCCC2)C1 | 2.05
O=C(Oc1ccc(Br)cc1)N1CCN2CCC1CC2 [SSR180711] | 1.58

Same assay, conditions: octan-1-ol/water, pH 7.4, LogD7.4

logD | Structure (SMILES)
2.42 | Cc1cc(Cl)ccc1OC1CCN(C[C@H](O)CNC(=O)c2c[nH]c(=O)c3cc(S(C)(=O)=O)ccc23)CC1
2.86 | CS(=O)(=O)c1ccc(C(=O)NC[C@@H](O)CN2CCC(Oc3ccc(Cl)c(Cl)c3)CC2)s1
2.69 | Cn1cncc1-c1c2c(=O)n(C)c(=O)n(CC3CC3)c2nn1Cc1ccnc2ccc(Cl)cc12
3.47 | CN(c1ccccc1)c1ccnc(Nc2cc(N3CCOCC3)cc(N3CCOCC3)c2)n1
1.51 | CC(=O)NC[C@H]1CN(c2ccc(-n3cnc(C#N)c3)c(F)c2)C(=O)O1
4.26 | COc1cc2ncnc(Nc3cc(NC(=O)c4cccc(N(C)C)c4)ccc3Cl)c2cc1OC
-0.49 | CC(=O)c1ccc(S(=O)(=O)NC(=O)NC2CCCCC2)cc1 [ACETOHEXAMIDE]
2.9 | COc1ccc(OC(F)(F)F)cc1CN[C@H]1CCCN[C@H]1c1ccccc1
3.27 | O=C(N[C@H]1Cc2ccccc2N(C[C@H](O)CO)C1=O)c1cc2cc(Cl)sc2[nH]1
3.18 | CC(=O)N[C@H](C)c1ccc(Nc2ncc3cc(-c4ccncc4)ccc3n2)cc1
0.25 | COc1ccc(-c2nc3c(NCCCNC(=O)c4ccccc4)c(Br)cnc3[nH]2)cc1
4.2 | FC(F)(F)c1cc(COCC(c2cccc(Cl)c2)N2CCNCC2)cc(C(F)(F)F)c1 (stereo unspecified)
1.9 | CCCCNc1nc(N)c2[nH]c(=O)n(Cc3ccc(OCCN(C)C)nc3)c2n1
3.69 | Cc1cc(NCc2ccccc2)nc2ccccc12
0.69 | O=c1[nH]c2c(O)ccc([C@@H](O)CNCCc3cccc(CNCc4ccccc4F)c3)c2s1
3.14 | Cc1ncc(-c2nc(Nc3ccc(C(N)=O)c(F)c3)ncc2F)n1C(C)C
3.63 | O=C(COc1ccc(SCCCCCc2ccccc2)cc1)COc1ccc(C(=O)O)cc1
1.14 | CC(C)C(NC(=O)Cn1c(-c2ccccc2)ccc(NC(=O)Cc2ccccc2C(=O)O)c1=O)C(=O)C(F)(F)F (stereo unspecified)
2.31 | O=C(c1ccc(CCC(COc2ccc(-c3cccc([N+](=O)[O-])c3)cc2)N2C(=O)CCCC2=O)cc1)N1CCCC1 (stereo unspecified)
3.37 | O=C(NC1Cc2ccccc2N(C[C@@H](O)CO)C1=O)c1cc2cc(Cl)sc2[nH]1 (stereo partly specified)
0.52 | CNc1cccc(CCOc2ccc(C[C@H](NC(=O)c3c(C)cc(C)cc3C)C(=O)O)cc2)n1
2.1 | Cn1c(N)nc(CCc2ccc3cc[nH]c3c2)cc1=O
2.8 | CN1CCc2c1nc1ccccc1c2NC(=O)Cc1ccccc1
2.84 | CS(=O)(=O)c1ccc(C(=O)Nc2ccc(Cl)c(-c3ccccn3)c2)c(Cl)c1 [VISMODEGIB]

logD | Structure (SMILES)
3.2 | COCCN1CCN(CC(=O)Nc2ccc(-c3cccn4c(=O)cc(N5CCOCC5)nc34)c3sc4ccccc4c23)CC1
2.1 | O=c1c2ccccc2nc2ccccn12
-1 | CN(C)CCCNC(=O)c1nc(Cl)c(N)nc1N
2.8 | COc1ccc(-c2coc3cc(O)cc(O)c3c2=O)cc1OC
2.43 | O=C(C1CCCCC1)N1CC(=O)N2CCc3ccccc3C2C1 (stereo unspecified) [PRAZIQUANTEL]
2.77 | Cc1cc2n[nH]c(=O)n2c2cc(-c3ccc(C(=O)N4CCOCC4)cc3)ccc12
2.93 | CCCCC(CC)COC(=O)CC(C(=O)OCC(CC)CCCC)S(=O)(=O)O (stereo unspecified) [DOCUSATE]
2.5 | CC(N)(COP(=O)(O)O)C(=O)O (stereo unspecified)
2.72 | CCC(c1nc2ccsc2c(=O)n1Cc1ccccc1)N(CCCN)C(=O)c1ccc(C(C)C)cc1 (stereo unspecified)
0.77 | CN[C@@H](C)C(=O)N[C@H](C(=O)N[C@H]1CCCN(CCc2ccc(O)cc2)C1)C(C)(C)C
2.32 | COc1cc2c(Nc3ncc(NC(=O)c4ccccc4)cn3)ncnc2cc1OCCCN1CCOCC1
1.9 | CN(C)CCCNS(=O)(=O)c1ccc(Nc2nccc(-c3cnc4ccccn34)n2)cc1
2.26 | CC1CCN(C(=O)c2scc3c2OCCO3)CC1
2.7 | O=C(COCc1ccncc1)N1CCC(c2ccc(F)cc2Cl)CC1
0.02 | C=C(CC)C(=O)c1ccc(OCC(=O)O)c(Cl)c1Cl [ETHACRYNIC ACID]
2.45 | Cc1ncc(-c2ccnc(Nc3ccc(C(=O)N(C)C)cc3)n2)n1C(C)C
1.13 | NC(=O)c1cccnc1Oc1ccccc1
2.7 | CC[C@H](C)[C@@H](CO)NS(=O)(=O)c1ccc(Cl)s1
1.88 | COC(=O)N1CCN(c2ccnc(-n3ccnc3)n2)C(CC(=O)NCc2ccc3c(c2)OCO3)C1 (stereo unspecified)
1.3 | CC(NC(=O)C1(N)CCN(c2ncnc3[nH]ccc23)CC1)c1ccccn1 (stereo unspecified)
2.9 | COc1cc(F)ccc1-c1cncc(CNC(=O)C2CC2)c1
0.7 | COC1/C=C/OC2(C)Oc3c(C)c(O)c4c(c3C2=O)C(=O)C=C(NC(=O)/C(C)=C\C=C\C(C)C(O)C(C)C(O)C(C)C(OC(C)=O)C1C)C4=O (stereo unspecified)
3.99 | Oc1ccc2nc(-c3ccccc3)sc2c1
2.99 | Cn1ncc(Cl)c1-c1cc(C(=O)N[C@H](CN)Cc2cccc(F)c2)sc1Cl [AFURESERTIB]

logD | Structure (SMILES)
1.47 | Cc1ccc(C(=O)N(CCCN)Cc2nc3cc(Cl)ccc3c(=O)n2Cc2ccccc2)cc1
4 | O=C(NCc1ccco1)c1ccc2[nH]c(COc3ccc(C45CC6CC(CC(C6)C4)C5)cc3)nc2c1
4.3 | CC(C)c1nc(CN(C)C(=O)N[C@H](C(=O)N[C@@H](Cc2ccccc2)C[C@H](O)[C@H](Cc2ccccc2)NC(=O)OCc2cncs2)C(C)C)cs1 [RITONAVIR]
2.41 | COc1ccc(CCN2CN=C(SCc3ccc(Cl)cc3)NC2)cc1OC
2.58 | Cc1ccc(-c2c[nH]nn2)cc1
3.42 | Cc1c(-c2ccccc2)oc2c(C(=O)OCCN3CCCCC3)cccc2c1=O [FLAVOXATE]
3.5 | COc1cc2ncnc(Nc3cccc(C)c3)c2cc1OC
3.6 | CCOc1cccc(Nc2nnc(C(=O)Nc3ccc(N4CCOCC4)nc3)o2)c1
4.26 | Cc1oc(C#N)cc1-c1c2c(=O)n(C)c(=O)n(CC3CC3)c2nn1Cc1ccnc2ccc(Cl)cc12
3.8 | CCCNC(=O)c1nnc2c(-c3ccccc3)cccc2c1N
2.17 | CC(NC(=O)C1(N)CCN(c2ncnc3[nH]ccc23)CC1)c1ccccc1 (stereo unspecified)
3.51 | C[C@@H]1CCCN1CCc1cc2cc(-c3ccc(C#N)cc3)ccc2o1
2.08 | CC(O)(C(=O)Nc1ccc(S(=O)(=O)c2cccnc2)cc1)C(F)(F)F (stereo unspecified)
2.9 | O=c1oc2cc(O)ccc2cc1-c1ccc(O)cc1
-0.31 | N=C(N)Nc1ccc(Cl)c(Cl)c1
1.72 | OC(c1ccccc1)c1cccnc1 (stereo unspecified)
4.05 | COc1ccc(Cl)cc1C(=O)Nc1nc2ccccc2[nH]1
2.94 | O=C(NS(=O)(=O)c1cccc(C(F)(F)F)c1)N1CCC(N2CCC(Oc3ccc(Cl)c(Cl)c3)CC2)CC1
3.19 | O=C(Nc1ccc(F)cc1)c1cccnc1Oc1ccccc1
-0.4 | Cc1nnc(N)s1
2.77 | CNS(=O)(=O)c1ccc2c(C(=O)NC[C@@H](O)CN3CCC(Oc4ccc(Cl)c(Cl)c4)CC3)c[nH]c(=O)c2c1
4.1 | N#Cc1ccc(-c2csc(Nc3ccc(O)cc3)n2)cc1
1.14 | O=S(=O)(Nc1nnc(-c2ccccc2)s1)c1ccc(Cl)cc1
2.88 | CC(=O)NC[C@H]1CN(c2ccc(N3Cc4cccnc4C3)c(F)c2)C(=O)O1

logD | Structure (SMILES)
1.11 | O=c1c2ccc(Cl)cc2[nH]c2c(O)nn(Cc3ccsc3)c(=O)c12
1.09 | NC(=O)c1ccccc1O [SALICYLAMIDE]
2.7 | Cn1c(N)nc(CCc2ccc3ccccc3c2)cc1=O
2.23 | Nc1ccc2c(c1)C(=O)C(=O)c1ccccc1-2
2.1 | O=S(=O)(NCC(c1ccccc1)N1CCCCCC1)c1cccnc1 (stereo unspecified)
0.6 | O=c1c2ccccc2nc2n1CCO2
2.36 | NC(=O)c1ccc(=O)n(Cc2ccc(Cl)cc2Cl)c1
1.9 | CCCc1c(OCc2cccc(NC(=O)c3ccccc3C(=O)O)c2)ccc(C(C)=O)c1O
2.29 | COc1cc(F)ccc1-c1cccc(CNC2CCCC2)c1
3.87 | Cc1ccc(NC(=O)c2cccc(C(F)(F)F)c2)cc1NC(=O)c1ccc2ncccc2c1
0.64 | CCCSc1c(C(=O)NC2CCCCC2)cnn1-c1ccc(C(=O)O)cc1
2.8 | Brc1cc(Br)cc(COC[C@H](c2ccccc2)N2CCNCC2)c1
0.81 | c1ccc([C@H]2CN3CCSC3=N2)cc1 [LEVAMISOLE]
2.3 | CC(C)[C@@H](CO)NS(=O)(=O)c1ccc(Cl)s1
2.84 | CC(C)C(NC(=O)Cn1c(-c2ccccc2)ccc(NC(=O)NCc2cccnc2)c1=O)C(=O)C(F)(F)F (stereo unspecified)
2.35 | c1ccc2[nH]c(-c3cscn3)nc2c1 [THIABENDAZOLE]
3.8 | CCC[C@H](CO)Nc1nc(SCc2ccccc2)nc2nc(N)sc12
3.1 | COc1cccc(Nc2ncnc3cc(OC)c(OC)cc23)c1
3.2 | COc1cc(N2CCN(C(C)=O)CC2)ccc1Nc1ncc(Cl)c(-c2cnc3c(C)cccn23)n1
1.71 | O=C(O)C(c1ccccc1)N1CCO[C@@H](CN2CCC(Oc3ccc(Cl)c(Cl)c3)CC2)C1 (stereo partly specified)
0.72 | CCN(CC)CCCNCc1cc(Cl)c2cccnc2c1O [CLAMOXYQUIN]

Structure (SMILES) | logD
O=C(O)CC[C@@H]1c2ccccc2C[C@H]1NC(=O)c1cc2sc(Cl)c(Cl)c2[nH]1 | 2.84
CC(=O)CCCCn1c(=O)c2c(ncn2C)n(C)c1=O [PENTOXIFYLLINE] | 0.22
